“Also recorded” adds a separate entry of the source. Where no end group is shown, it is not given here.
Key:
[1] = system: CRFR1; conditions: cited from earlier work
[2] = biological target: T1, rCRFR1 (Rattus norvegicus, UniProt P35353); experiment: Competition binding scintillation proximity assay, rCRFR1 membranes; conditions: for selectivity for CRFR1: CRFR1 vs CRFR2, in words
T1 construct: expressed in transfected cells
T1 sequence (P35353 24-415): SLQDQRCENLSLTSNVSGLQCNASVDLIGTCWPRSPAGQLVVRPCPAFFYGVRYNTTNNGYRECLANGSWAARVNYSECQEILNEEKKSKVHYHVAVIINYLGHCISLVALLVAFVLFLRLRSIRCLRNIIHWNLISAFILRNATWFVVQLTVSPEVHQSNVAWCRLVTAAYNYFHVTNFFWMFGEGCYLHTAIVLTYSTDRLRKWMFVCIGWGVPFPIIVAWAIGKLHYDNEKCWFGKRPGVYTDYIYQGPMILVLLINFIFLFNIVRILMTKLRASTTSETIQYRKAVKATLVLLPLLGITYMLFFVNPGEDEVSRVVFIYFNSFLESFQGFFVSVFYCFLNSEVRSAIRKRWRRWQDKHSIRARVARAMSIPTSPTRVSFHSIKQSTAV
Experimental: (§1) Crude membrane fractions were prepared from human embryonic kidney (HEK) 293 cells stably expressing either cloned rat CRFR1α(rCRFR1) or mouse CRFR2β (mCRFR2β) as described (20). Rat CRFBP (rCRFBP) was produced in HEK 293 cells stably transfected with cDNA coding for rCRFBP C-terminally fused with a His6 sequence as described (36). The scintillation proximity assays (SPA) for binding analysis of CRFR and CRFBP have been already described in detail (21, 22). For competition binding assays of rCRFR1 and rCRFBP, [^125I-Tyr^0]h/rCRF was used as radiolabeled peptide, whereas [^125I-Tyr^0]Svg was employed for mCRFR2β.

[3] = biological target: T1, rCRFR1; experiment: Agonist-induced intracellular cAMP accumulation in HEK 293 cells producing rCRFR1; type: cell-based; conditions: ratio of biological potencies (cAMP)
Experimental: The biological potency of cortagine and OCRF was evaluated by the determination of the EC50 values for agonist-induced intracellular accumulation of cAMP in HEK 293 cells producing either rCRFR1 or mCRFR2β.
The HEK 293 cells were plated into 24 well cell culture plates and stimulated as described (21) using increasing concentrations of the agonists under investigation. Intracellular cAMP was measured with the Biotrak™ cAMP [^125I] SPA system (Amersham Pharmacia Biotech) according to the manufacturer's product manual.

[4] = Maximum solubility in aCSF by amino acid analysis; type: physicochemical; conditions: aCSF, pH 7.4; read-out: maximal solubility cmax
Experimental: After dissolving the peptides in artificial cerebrospinal fluid (aCSF; 124 mM NaCl, 26.4 mM NaHCO3, 10 mM glucose, 3.3 mM KCl, 2.5 mM CaCl2 , 2.4 mM MgSO4 , 1.2 mM KH2PO4) at pH=7.4, the maximum solubility cmax was determined by amino acid analysis as described (21). The isoelectric point of the peptides was determined by isoelectric focusing (IEF) as described (21) with a Bio-Rad IEF cell system using Bio-Rad IEF strips in the pH range 3-10.

[5] = type: physicochemical
Experimental: A high solubility under physiological conditions is a crucial prerequisite especially for compounds to be injected into the rodent brain. […] Both peptides were soluble in a concentration range of up to 1000 μM (FIG. 6), so that there was no limitation in view of the agonist doses typically used in behavioral experiments. […] Consequently, solutions of cortagine to be used in the pharmacological assays were prepared in phosphate buffered saline (PBS; pH=7.4).

[6] = biological target: T2, rCRFBP (Rattus norvegicus, UniProt P24388); experiment: Competition binding scintillation proximity assay, rCRFBP; conditions: binding analysis, in words
T2 construct: His6 (C); made in house; host or cells: HEK 293 cells, stably transfected
T2 sequence (P24388 25-322): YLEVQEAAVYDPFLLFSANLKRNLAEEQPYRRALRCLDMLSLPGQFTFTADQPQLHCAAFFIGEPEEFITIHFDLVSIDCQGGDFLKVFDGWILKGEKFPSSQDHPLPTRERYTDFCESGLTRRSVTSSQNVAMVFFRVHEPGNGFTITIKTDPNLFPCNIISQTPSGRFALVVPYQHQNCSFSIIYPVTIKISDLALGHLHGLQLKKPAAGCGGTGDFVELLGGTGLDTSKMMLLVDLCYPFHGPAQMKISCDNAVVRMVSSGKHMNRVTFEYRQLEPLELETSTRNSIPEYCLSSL
Experimental: as §1

[7] = biological target: T3, mCRFR2β (Mus musculus, UniProt Q60748); experiment: Competition binding scintillation proximity assay, mCRFR2β membranes; conditions: for affinity for CRFR2: binding analysis, in words
T3 construct: expressed in transfected cells
Experimental: as §1

[8] = system: C57BL/6J mice; experiment: Elevated plus-maze test, intraseptal (i.s.) injection; type: in vivo, mouse; conditions: 400 ng aSvg-30 i.s. 15 min before oCRF
Experimental: Nine-week old male C57BL/6J (Centre D'Elevage Janvier, Sultzfeld, France) were individually housed in macrolon cages according to the recommendations of the Society for Laboratory Animal Science (Germany). All experiments were carried out in accordance with the European Council Directive (86/609/EEC) with the permission of the Animal Protection Law enforced by the District Government of Braunschweig, State of Lower Saxony, Germany, which is in full agreement with the APA ethical guidelines. All efforts were made to minimize animal suffering. The number of mice per group was 9-11.
All peptides were dissolved in aCSF except for the CRFR2-selective antagonist antisauvagine-30 (aSvg-30) (20) that was initially dissolved in 10 mM aqueous acetic acid and diluted with the same volume of two-fold concentrated aCSF. The final pH of the peptide solutions was 7.4. The exact peptide concentration of the injection solutions was determined by amino acid analysis with a Beckman HPLC analyzer system 6300. […]
The elevated plus-maze (EPM) behavior of C57BL/6J mice cannulated in the lateral ventricles or lateral intermediate septal area (23) was investigated 30 min after injection of the CRFR1 agonist under investigation for 5 min in the EPM test (24). […] The behavior of the mice was recorded by a video camera connected to a PC and analyzed by the Technical & Scientific Equipment software VIDEOMOT 2. […]

T3 sequence (Q60748 1-431 isoform Q60748-2): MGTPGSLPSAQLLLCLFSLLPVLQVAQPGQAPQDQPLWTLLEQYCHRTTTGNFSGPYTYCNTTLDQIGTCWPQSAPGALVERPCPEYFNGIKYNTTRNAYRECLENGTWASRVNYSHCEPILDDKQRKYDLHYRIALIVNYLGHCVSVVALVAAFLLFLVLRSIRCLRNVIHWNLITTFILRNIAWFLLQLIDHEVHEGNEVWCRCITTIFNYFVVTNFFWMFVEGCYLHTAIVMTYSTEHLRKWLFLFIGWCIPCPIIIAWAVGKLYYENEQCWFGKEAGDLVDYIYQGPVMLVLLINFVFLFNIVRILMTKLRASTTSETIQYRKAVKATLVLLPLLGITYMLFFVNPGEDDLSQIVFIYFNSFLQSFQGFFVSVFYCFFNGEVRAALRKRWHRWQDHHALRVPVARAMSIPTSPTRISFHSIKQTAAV

## CCCCN(CC)c1nc(C)nc2c1c(C)cn2-c1c(C)cc(C)cc1C [CP-154,526]
[1]
  locomotion in the EPM test: nonspecific increase in locomotion

## CC[C@H](C)[C@H](NC(=O)[C@@H](NC(=O)[C@H](CC(=O)O)NC(=O)[C@H](CC(C)C)NC(=O)[C@H](CC(C)C)NC(=O)[C@H](CC(C)C)NC(=O)[C@H](CCCNC(=N)N)NC(=O)[C@H](CC(N)=O)NC(=O)[C@H](CC(N)=O)NC(=O)[C@H](C)NC(=O)[C@H](C)NC(=O)[C@H](CCC(N)=O)NC(=O)[C@H](CCC(N)=O)NC(=O)[C@H](CCCCN)NC(=O)[C@H](CCC(=O)O)NC(=O)[C@H](CCCCN)NC(=O)[C@H](CCC(=O)O)NC(=O)[C@H](CCC(N)=O)NC(=O)[C@H](CCCCN)NC(=O)[C@H](CCC(=O)O)NC(=O)[C@@H](NC(=O)[C@H](CCC(=O)O)NC(=O)[C@@H](NC(=O)[C@H](CCSC)NC(=O)[C@H](CCCCN)NC(=O)[C@H](CCCNC(=N)N)NC(=O)[C@H](CC(C)C)NC(=O)[C@H](CC(C)C)NC(=O)[C@H](CCC(=O)O)NC(=O)[C@H](CC(C)C)NC(=O)[C@H](CO)NC(=O)[C@H](CC(C)C)NC(=O)[C@H](CC(=O)O)NC(=O)[C@@H](NC(=O)[C@H](CO)NC(=O)[C@@H](NC(=O)[C@@H]1CCCN1C(=O)[C@@H]1CCCN1C(=O)CNC(=O)[C@@H]1CCC(=O)N1)[C@@H](C)CC)[C@@H](C)CC)[C@@H](C)CC)[C@@H](C)CC)[C@@H](C)O)C(N)=O [Svg, sauvagine, reference compound]
[2]; binding analysis
  selectivity for CRFR1: non-selective

## CC[C@H](C)[C@H](NC(=O)[C@H](CC(=O)O)NC(=O)[C@H](CC(C)C)NC(=O)[C@H](CC(C)C)NC(=O)[C@H](CCCCN)NC(=O)[C@H](CCCNC(=N)N)NC(=O)[C@H](CC(N)=O)NC(=O)[C@H](CO)NC(=O)[C@H](Cc1c[nH]cn1)NC(=O)[C@H](C)NC(=O)[C@H](CCC(N)=O)NC(=O)[C@H](CCC(N)=O)NC(=O)[C@H](C)NC(=O)[C@H](CC(C)C)NC(=O)[C@H](CCC(N)=O)NC(=O)[C@H](CC(=O)O)NC(=O)[C@H](C)NC(=O)[C@H](CCCCN)NC(=O)[C@@H](NC(=O)[C@H](CCSC)NC(=O)[C@H](CCC(=O)O)NC(=O)[C@H](CC(C)C)NC(=O)[C@@H](NC(=O)[C@H](CCC(=O)O)NC(=O)[C@H](CCCNC(=N)N)NC(=O)[C@H](CC(C)C)NC(=O)[C@H](CC(C)C)NC(=O)[C@H](Cc1c[nH]cn1)NC(=O)[C@H](Cc1ccccc1)NC(=O)[C@@H](NC(=O)[C@H](CC(C)C)NC(=O)[C@H](CC(=O)O)NC(=O)[C@H](CC(C)C)NC(=O)[C@H](CO)NC(=O)[C@@H](NC(=O)[C@@H]1CCCN1C(=O)[C@@H]1CCCN1C(=O)[C@H](CCC(=O)O)NC(=O)[C@H](CCC(N)=O)NC(=O)[C@@H](N)CO)[C@@H](C)CC)[C@@H](C)O)C(C)C)[C@@H](C)O)C(=O)N[C@@H](C)C(N)=O [oCRF, ovine CRF, reference compound]
[2]; ratio of binding affinities
  CRFR1-selectivity over CRFR2β, IC50(mCRFR2)/IC50(rCRFR1): 89
[3]
  CRFR1-selectivity over CRFR2β, EC50(mCRFR2)/EC50(rCRFR1): 19
[4]
  solubility: ≤ 1000 µM
[5]
  solubility in 10 mM aqueous acetic acid: soluble in 10 mM aqueous acetic acid

## [Ala^40] [Svg^1-12]x[h/rCRF^14-30]x[Svg^30-40] [compound 8]
[2]; binding analysis
  selectivity for CRFR1: highly selective for CRFR1
[2]; compound 8 vs compound 6, compound 9 vs compound 8, Nle20 analog vs compound 9
  change in affinity to CRFR1 in comparison to parent peptide: more than five-fold increase
[6]
  affinity to CRFBP: high affinity
[7]; compound 8 vs compound 6, compound 9 vs compound 8
  change in affinity for CRFR2 in comparison to parent peptide: only a slight increase

## [Ala^41]h/rCRF (SEEPPISLDLTFHLLREVLEMARAEQLAQQAHSNRKLMEIA; ends and bridges not checked; UniProt P06850 154-194, looked up, variant I41A) [h/rCRF analog with Ala in position 41]
[2]; binding analysis
  selectivity for CRFR1 in comparison to h/rCRF: increase in CRFR1 selectivity by a factor of three

## [Svg^1-12 ]x[h/rCRF^14-30]x[Svg^30-40] (QGPPISIDLSLELLREVLEMARAEQLAQQAANNRLLLDTI; not fully specified (residue 1); ends and bridges not checked) [compound 6]
[2]; binding analysis
  selectivity for CRFR1: selective for CRFR1
[7]
  affinity for CRFR2: low affinity to CRFR2

## [Svg^1-29]x[h/rCRF^31-41] (QGPPISIDLSLELLRKMIEIEKQEKEKQQAHSNRKLMEII; ends and bridges not checked) [compound 7, chimeric peptide of h/rCRF and Svg domains]
[2]; binding analysis
  selectivity for CRFR1: not

## [h/rCRF^1-13]x[Svg^13-29]x[h/rCRF^31-41] (SEEPPISLDLTFHLLRKMIEIEKQEKEKQQAHSNRKLMEII; ends and bridges not checked) [compound 4, chimeric peptide of h/rCRF and Svg domains]
[2]; binding analysis
  selectivity for CRFR1: not
[7]
  affinity for CRFR2: not

## [h/rCRF^1-30]x[Svg^30-40] (SEEPPISLDLTFHLLREVLEMARAEQLAQQAANNRLLLDTI; ends and bridges not checked) [compound 5, chimeric peptide of h/rCRF and Svg domains]
[2]; binding analysis
  selectivity for CRFR1: clear selectivity for CRFR1
[7]
  affinity for CRFR2: low affinity

## anti-sauvagine-30 [aSvg-30]
[8]
  antagonism of anxiogenic effects of 100 ng oCRF: completely prevented; also recorded: fully antagonized
